# Measured values published in ChEMBL document CHEMBL1126456, “Vinylogous hydroxamic acids: 5-lipoxygenase inhibitors” (Bioorg Med Chem Lett, 1992).
# Molecular target: T1, Polyunsaturated fatty acid 5-lipoxygenase (Rattus norvegicus, UniProt P12527)
# T1 sequence (P12527 whole entry): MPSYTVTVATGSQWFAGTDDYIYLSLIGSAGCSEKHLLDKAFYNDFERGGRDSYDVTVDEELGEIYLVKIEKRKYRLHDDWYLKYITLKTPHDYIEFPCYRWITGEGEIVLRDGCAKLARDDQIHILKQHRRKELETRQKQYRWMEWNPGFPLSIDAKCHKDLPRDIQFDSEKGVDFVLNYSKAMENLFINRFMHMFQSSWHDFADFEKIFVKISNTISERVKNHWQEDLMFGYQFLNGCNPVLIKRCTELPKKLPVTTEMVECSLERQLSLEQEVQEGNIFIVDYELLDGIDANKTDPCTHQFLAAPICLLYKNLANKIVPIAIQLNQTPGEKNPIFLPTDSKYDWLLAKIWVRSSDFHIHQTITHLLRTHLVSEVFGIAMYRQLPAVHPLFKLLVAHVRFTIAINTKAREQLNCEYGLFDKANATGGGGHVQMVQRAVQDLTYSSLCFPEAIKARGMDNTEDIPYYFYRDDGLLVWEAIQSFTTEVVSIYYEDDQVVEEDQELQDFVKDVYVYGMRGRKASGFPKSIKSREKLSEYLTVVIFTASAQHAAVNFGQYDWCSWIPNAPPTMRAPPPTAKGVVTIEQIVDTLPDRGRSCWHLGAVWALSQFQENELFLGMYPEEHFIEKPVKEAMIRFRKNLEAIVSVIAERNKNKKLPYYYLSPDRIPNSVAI
# Assay: Inhibition of 5-Lipoxygenase of rat basophilic leukemia cells
# Format: cell-based, RBL-1
row,Compound,IC50 [µM]
1,C/C(=C/N(O)Cc1ccccc1)C(=O)c1ccc(F)cc1,0.3

# Molecular target: T2, Cyclooxygenase (Bos taurus, UniProt O62664+O62698)
# T2 sequence (O62664 whole entry): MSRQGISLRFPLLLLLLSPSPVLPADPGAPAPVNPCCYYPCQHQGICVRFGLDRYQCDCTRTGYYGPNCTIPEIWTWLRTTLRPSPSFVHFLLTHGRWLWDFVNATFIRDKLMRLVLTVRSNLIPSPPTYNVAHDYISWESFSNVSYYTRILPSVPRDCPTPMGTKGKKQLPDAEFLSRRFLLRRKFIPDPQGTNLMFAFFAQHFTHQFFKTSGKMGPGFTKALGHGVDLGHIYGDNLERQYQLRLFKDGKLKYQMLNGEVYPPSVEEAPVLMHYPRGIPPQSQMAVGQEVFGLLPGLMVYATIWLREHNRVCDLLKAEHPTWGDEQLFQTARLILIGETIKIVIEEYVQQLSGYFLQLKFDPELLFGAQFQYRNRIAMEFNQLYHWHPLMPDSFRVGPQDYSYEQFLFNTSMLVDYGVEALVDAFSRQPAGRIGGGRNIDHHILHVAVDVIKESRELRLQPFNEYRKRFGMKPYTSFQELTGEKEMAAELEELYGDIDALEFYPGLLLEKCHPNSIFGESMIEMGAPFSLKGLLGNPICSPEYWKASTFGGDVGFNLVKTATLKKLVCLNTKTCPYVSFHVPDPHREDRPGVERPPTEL
# T2 sequence (O62698 whole entry): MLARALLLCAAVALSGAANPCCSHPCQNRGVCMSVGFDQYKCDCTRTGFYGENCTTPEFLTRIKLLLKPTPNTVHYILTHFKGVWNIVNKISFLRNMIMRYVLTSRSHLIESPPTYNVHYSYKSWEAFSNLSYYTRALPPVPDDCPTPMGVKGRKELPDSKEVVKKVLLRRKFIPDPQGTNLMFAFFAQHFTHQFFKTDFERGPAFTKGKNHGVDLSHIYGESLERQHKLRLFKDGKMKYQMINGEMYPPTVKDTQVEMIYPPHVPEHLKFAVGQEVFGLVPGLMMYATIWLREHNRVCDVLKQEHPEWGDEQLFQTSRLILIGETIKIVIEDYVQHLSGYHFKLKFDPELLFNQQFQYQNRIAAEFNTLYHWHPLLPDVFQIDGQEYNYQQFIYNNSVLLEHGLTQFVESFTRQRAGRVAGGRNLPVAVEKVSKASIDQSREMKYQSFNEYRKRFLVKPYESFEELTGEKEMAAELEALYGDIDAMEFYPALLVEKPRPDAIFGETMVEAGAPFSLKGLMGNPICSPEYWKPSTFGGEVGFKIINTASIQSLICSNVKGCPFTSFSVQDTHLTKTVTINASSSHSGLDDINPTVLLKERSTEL
# Assay: Compound was evaluated for inhibition against cyclooxygenase of bovine seminal vesicles
# Format: protein assay
row,Compound,IC50 [µM]
1,CC(c1cc2ccccc2s1)N(O)C(N)=O (configuration not stated) [ZILEUTON],> 750
2,CC(=O)ON(/C=C\C(=O)c1ccc(F)cc1)Cc1ccccc1,> 750
3,O=C1CCN(c2ccccc2)N1 [PHENIDONE],6.9
4,O=C(/C=C\N(O)Cc1ccccc1)c1ccc(F)cc1,> 750
5,CON(/C=C\C(=O)c1ccc(F)cc1)Cc1ccccc1,> 750
6,O=C(/C=C\N(O)C1CCCCC1)c1ccc(F)cc1,> 750
